Literature values, collected in patent US20260096996A1, “PHARMACEUTICAL COMPOSITIONS OF TRETINOIN AND METHODS OF PRODUCING SUCH COMPOSITIONS” (Douglas Pharmaceuticals Limited, priority 2022, published 2026).

What was measured:
[1] = patients treated for APL

## CC1=C(/C=C/C(C)=C/C=C/C(C)=C/C(=O)O)C(C)(C)CCC1 [tretinoin, all-trans retinoic acid]
[1]
  patients experiencing nausea and vomiting: More than half
In vivo
  absolute bioavailability: approximately 50%
Orally administered, human
  administered radiolabel recovered in the urine: approximately two-thirds
Within 72 hours, radiolabeled tretinoin 2.75 mg and 50 mg
  radioactivity recovered in the urine: approximately 63%
Within 6 days, radiolabeled tretinoin 2.75 mg and 50 mg
  radioactivity appeared in the feces: 31%
